Here are results for one compound from patent US9428465B2, “Acid ceramidase inhibitors and their use as medicaments” (FONDAZIONE ISTITUTO ITALIANO DI TECHNOLOGIA, priority 2012, dated 2016).

pIC50: −log10 of the molar value.

Assay [1] concerns the target human acid ceramidase (hAC) (Homo sapiens (Human), UniProt Q13510). The experiment in a line: Human acid ceramidase (hAC) activity assay, UPLC/MS of lauric acid. In kind it is biochemical. To be noted: human acid ceramidase, 50 μM N-lauroyl ceramide, pH 4.5. The protocol: Human acid ceramidase (hAC) cDNA was purchased from Open Biosystem (clone ID 3923451) and subcloned in the mammalian expression vector pCDNA3.1, containing the neomycin resistance gene. The cell line HEK293 was transfected with hAC-pCDNA3.1 construct using JetPEI reagent (Polypus Transfection™, Illkirch, FR) following the manufacturer instructions. A stable cell line of hAC-overexpressing HEK293 was generated by selection with G418 (1 mg/ml) and cell clones were derived by limited dilution plating. hAC-expressing clones were analyzed by western blot.
Hek293 cells overexpressing hAC were suspended in 20 mM Tris HCl (pH 7.5) containing 0.32M sucrose, sonicated and centrifuged at 800×g for 15 min at 4° C. The supernatants were centrifuged again at 12,000×g for 30 min at 4° C. The pellets were suspended in phosphate-buffered saline (PBS) and subjected to 2 freeze-thaw cycles at −80° C. The suspensions were centrifuged at 105,000×g for 1 h at 4° C. The supernatants containing hAC were kept at −80° C. until use. Protein concentration was measured using the bicinchoninic acid (BCA) assay (Pierce).
A hAC protein preparation (10 μg) was preincubated with inhibitors (final DMSO concentration 1%) in assay buffer (100 mM sodium phosphate, 0.1% Nonidet P-40, 150 mM NaCl, 3 mM DTT, 100 mM sodium citrate, pH 4.5) for 30 min at 37° C. Reactions were started by the addition of 50 μM N-lauroyl ceramide (Nu-Chek Prep, Elysian, Minn.) and carried on for 30 min at 37° C. Reactions were stopped by addition of a mixture of chloroform/methanol (2:1, vol/vol) containing 1 nmol 11-lauroleic acid (NuChek Prep). The organic phases were collected, dried under nitrogen and analyzed by UPLC/MS (Acquity, Waters) in the negative-ion mode monitoring the reaction product (lauric acid, m/z=199) using 11-lauroleic acid as internal standard.
Lipids were eluted on an Acquity UPLC BEH C18 column (50 mm length, 2.1 mm i.d., 1.7 μm pore size, Waters) column at 0.5 mL-min^−1 for 1.5 min with a gradient of acetonitrile (CH3CN) and water, both containing 0.25% acetic acid and 5 mM ammonium acetate (70% to 100% CH3CN in 0.5 min, 100% CH3CN for 0.5 min, 70% CH3CN for 0.4 min). The column temperature was 40° C. Electrospray ionization (ESI) was in the negative mode, capillary voltage was 1 kV and cone voltage was 50 V. Nitrogen was used as drying gas at a flow rate of 500 L/h and at a temperature of 400° C.
The [M-H]^− ion was monitored in the selected-ion monitoring mode (m/z values: lauric acid 199, 11-lauroleic acid […]). Calibration curves were generated with authentic lauric acid (Nu Check Prep). Inhibition of acid ceramidase activity was calculated as reduction of lauric acid in the samples compared to vehicle controls. IC50 values were calculated by non-linear regression analysis of log [concentration]/inhibition curves using GraphPad Prism 5 (GraphPad Software Inc., CA, USA) applying a standard slope curve fitting.

Assay [2] deals with human colon adenocarcinoma cell line SW403. In words: Ceramide levels in SW403 cells (lipid extraction, LC/MS). The class given is cell-based. The conditions noted are these: 3 μM, 3 hrs, vs. vehicle. The protocol: Lipids were extracted using a chloroform/methanol mixture (2:1 vol/vol, 3 mL) containing internal standards. The organic phases were collected, dried under nitrogen, and dissolved in methanol/chloroform (3:1 vol/vol) for LC/MS analyses.
Ceramides were analyzed by LC/MS^n, using a 1100-LC system (Agilent Technologies) equipped with an Ion Trap XCT and interfaced with ESI (Agilent Technologies). They were separated on a Poroshell 300 SB C18 column (2.1×75 mm i.d., 5 μm; Agilent Technologies) maintained at 30° C. A linear gradient of methanol in water containing 5 mM ammonium acetate and 0.25% acetic acid (from 80% to 100% of methanol in 3 man) was applied at a flow rate of 1 mL/min. […]
Tissue-derived ceramides were identified by comparison of their LC retention times and MS^n fragmentation patterns with those of authentic standards (Avanti Polar Lipids). Extracted ion chromatograms were used to quantify myristoyl ceramide (C140, m/z 510.5>492.5>264.3), palmitoyl ceramide (C16:0, m/z 538.5>520.3>264.3), stearoyl ceramide (C18:0 m/z 566.5>548.3>264.3), lignoceroylceramide (C24:0 m/z 650.5>632.3>264.3), nervonoylceramide (C24:1 m/z 648.5>630.3>264.3) and using lauroyl ceramide standard (m/z 482.5>464.5>264.3). […]

The test system of a further assay is SW403 cells. The experiment in a line: SW403 cell viability, MTT assay. In kind it is cell-based, human. The protocol:
Cells were seeded in 12- or 96-well plates in complete medium 24 hrs before treatment and then incubated for 24 hrs (single treatment) or 72 hrs (multiple treatments) with different drug concentrations in media without serum. Cell viability was then evaluated.
Alternatively, cell viability was assessed measuring mitochondrial functionality by the MIT assay, which is based on the reduction of the soluble tetrazolium salt MTT [(3-(4,5-dimethylthiazol-2-yl)-2,5-diphenyltetrazolium bromide] into insoluble formazan by mitochondria. Briefly, after treatment, cells were washed with PBS and incubated with 0.5 mg/ml, MTT for 2 hrs at room temperature, MTT reduction was quantified by absorbance at 570 nm using a UV-visible plate reader.

The pIC50 is −log10 of the IC50, conventionally taken in molar units.

Sequence of human acid ceramidase (hAC) (Q13510 143-395): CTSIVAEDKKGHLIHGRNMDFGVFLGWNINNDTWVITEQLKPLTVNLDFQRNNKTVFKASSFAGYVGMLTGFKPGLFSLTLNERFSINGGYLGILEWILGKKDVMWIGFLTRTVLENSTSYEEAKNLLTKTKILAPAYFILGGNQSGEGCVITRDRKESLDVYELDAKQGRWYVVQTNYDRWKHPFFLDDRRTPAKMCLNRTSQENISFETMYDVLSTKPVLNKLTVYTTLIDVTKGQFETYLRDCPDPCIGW
Sequence of human acid ceramidase (hAC) (Q13510 22-142): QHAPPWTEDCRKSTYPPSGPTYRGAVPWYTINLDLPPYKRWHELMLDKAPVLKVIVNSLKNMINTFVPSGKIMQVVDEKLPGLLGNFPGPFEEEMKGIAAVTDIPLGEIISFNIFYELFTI

The compound `CCCCCCNC(=O)n1cc(Br)c(=O)[nH]c1=O` [Example 5, 5-bromo-N-hexyl-2,4-dioxo-pyrimidine-1-carboxamide] had a pIC50 in assay [1] of 7.46. Also, the “levels of C14:0, C16:0 and C18:0 ceramide” value in assay [2] is listed as “increased”. In addition, the “interaction with 5FU in reducing cell viability (MTT assay)” value with SW403 cells (72 hrs, compound 30 μM + 5FU 300 nM) was “synergistic effect”. For the same compound, the “SW403 cell viability (MTT assay)” value with SW403 cells (sub-chronic treatment 72 hrs, compounds 30 μM, 5FU 300 nM) was “reduced cell viability”.
